Test results from publication PMC8585119, “MATE-Type Proteins Are Responsible for Isoflavone Transportation and Accumulation in Soybean Seeds” (International Journal of Molecular Sciences, 2021).
Residue numbers refer to the chain shown, from its start.

Experiments:
Experiment in all cases: yeast uptake assay, UPLC of cell extract versus empty vector
Assay type in all cases: cell-based
Settings in all cases: fed as 200 uM mixture of genistein, daidzein and glycitein; PBS pH 7.4, 30 °C, overnight/24 h; whole yeast cells
[1] = molecular target: T1, GmMATE2^C08 (Glycine max, UniProt I1N8G8)
T1 construct: gene LOC100796360; full-length CDS in pGBKT7 without GAL4 BD, ADH1 promoter, in yeast Y2HGold; no tag stated
T1 sequence (I1N8G8 1-496): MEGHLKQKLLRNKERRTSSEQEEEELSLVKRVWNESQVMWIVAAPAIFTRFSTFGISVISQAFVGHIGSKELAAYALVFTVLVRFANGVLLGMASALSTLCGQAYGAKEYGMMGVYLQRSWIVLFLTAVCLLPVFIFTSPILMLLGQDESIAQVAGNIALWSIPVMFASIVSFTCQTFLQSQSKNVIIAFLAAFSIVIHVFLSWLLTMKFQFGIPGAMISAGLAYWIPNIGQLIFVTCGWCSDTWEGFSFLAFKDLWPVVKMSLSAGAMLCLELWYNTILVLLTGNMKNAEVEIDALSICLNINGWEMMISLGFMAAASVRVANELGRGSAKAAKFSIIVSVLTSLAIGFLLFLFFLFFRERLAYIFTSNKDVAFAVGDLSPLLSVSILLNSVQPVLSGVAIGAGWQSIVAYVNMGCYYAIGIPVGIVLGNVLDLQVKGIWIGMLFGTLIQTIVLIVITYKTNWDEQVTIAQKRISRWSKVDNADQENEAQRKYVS

[2] = molecular target: T2, GmMATE1^C08 (Glycine max, UniProt I1N8G7)
T2 construct: gene LOC100775619; full-length CDS in pGBKT7 without GAL4 BD, ADH1 promoter, in yeast Y2HGold; no tag stated
T2 sequence (I1N8G7 1-495): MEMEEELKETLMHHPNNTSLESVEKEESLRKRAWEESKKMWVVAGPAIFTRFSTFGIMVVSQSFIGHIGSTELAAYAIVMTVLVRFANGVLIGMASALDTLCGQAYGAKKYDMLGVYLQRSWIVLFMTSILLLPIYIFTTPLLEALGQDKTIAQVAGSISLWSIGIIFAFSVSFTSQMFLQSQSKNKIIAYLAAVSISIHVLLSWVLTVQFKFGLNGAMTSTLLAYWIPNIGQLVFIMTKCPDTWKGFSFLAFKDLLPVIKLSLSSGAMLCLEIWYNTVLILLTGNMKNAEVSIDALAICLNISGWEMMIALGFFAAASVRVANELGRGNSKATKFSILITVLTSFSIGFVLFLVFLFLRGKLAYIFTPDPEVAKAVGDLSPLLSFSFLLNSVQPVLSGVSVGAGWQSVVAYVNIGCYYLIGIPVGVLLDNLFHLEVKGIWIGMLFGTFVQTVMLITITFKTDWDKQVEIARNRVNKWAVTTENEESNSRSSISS

[3] = molecular target: T3, GmMATE1^W05 (Glycine soja, UniProt A0A191UP88)
T3 construct: gene MATE1; full-length CDS in pGBKT7 without GAL4 BD, ADH1 promoter, in yeast Y2HGold; no tag stated
T3 sequence (A0A191UP88 1-495): T2 sequence (I1N8G7 1-495) with V206L, N330S

[4] = molecular target: T4, GmMATE2^W05 (Glycine soja, UniProt A0A191UP89)
T4 construct: gene MATE2; full-length CDS in pGBKT7 without GAL4 BD, ADH1 promoter, in yeast Y2HGold; no tag stated
T4 sequence (A0A191UP89 1-496): T1 sequence (I1N8G8 1-496) with N483S

Q: Which “yeast uptake assay, UPLC of cell extract versus empty vector” value [1] does the source give for O=c1c(-c2ccc(O)cc2)coc2cc(O)ccc12 [daidzein] here?
A: The value was “yeasts expressing GmMATE1 and GmMATE2 significantly accumulated more of all three metabolites”.

Q: And the “yeast uptake assay, UPLC of cell extract versus empty vector” value [2]?
A: Its value is “yeasts expressing GmMATE1 and GmMATE2 significantly accumulated more of all three metabolites”.

Q: And the “yeast uptake assay, UPLC of cell extract versus empty vector” value [3]?
A: The value was “allelic forms from either the cultivated soybean C08 or the wild soybean W05 exhibited similar”.

Q: What about the “yeast uptake assay, UPLC of cell extract versus empty vector” value [4] of the same compound?
A: Its value is “allelic forms from either the cultivated soybean C08 or the wild soybean W05 exhibited similar”.

Q: Which “yeast uptake assay, UPLC of cell extract versus empty vector” value [1] does the source give for O=c1c(-c2ccc(O)cc2)coc2cc(O)cc(O)c12 [genistein] here?
A: Its value is “yeasts expressing GmMATE1 and GmMATE2 significantly accumulated more of all three metabolites”.

Q: And the “yeast uptake assay, UPLC of cell extract versus empty vector” value [2]?
A: The value was “yeasts expressing GmMATE1 and GmMATE2 significantly accumulated more of all three metabolites”.

Q: And the “yeast uptake assay, UPLC of cell extract versus empty vector” value [3]?
A: The value was “allelic forms from either the cultivated soybean C08 or the wild soybean W05 exhibited similar”.

Q: And the “yeast uptake assay, UPLC of cell extract versus empty vector” value [4]?
A: Its value is “allelic forms from either the cultivated soybean C08 or the wild soybean W05 exhibited similar”.
